Source: patent US12076312B2, “Repurposing anti-androgen therapy for COVID-19 and immunotherapy” (Wisconsin Alumni Research Foundation, priority 2021, dated 2024)

Legend:
[1] = target: mutant AR forms (F877L mutation) (Homo sapiens, UniProt P10275, F877L); settings: F877L mutation that confers resistance to enzalutamide; cited from earlier work
AR = AR (Homo sapiens, UniProt P10275); settings: cited from earlier work
[2] = system: AR protein translocation in H2228; experiment: AR immunofluorescent imaging, nuclear translocation; settings: H2228, 1 nM R1881, 24 h
Protocol: (§4) After incubating in blocking buffer (5% normal goat serum and 0.2% fish skin gelatin in 0.2% Tween/PBS) for 1 hour at room temperature, the cells were stained with primary antibodies overnight at 4° C. […] Immunofluorescence images were captured on Leica TCS WLL SP8 Laser scanning confocal microscopy (Leica Microsystems) using 63× oil immersion objective (Scale bar: 10 μm). Multiple images were taken at different fields of coverslip to obtain at least 100 cells for AR quantification. The sum of pixel intensities of AR signal within the nucleus and cytoplasm was quantified using a custom MATLAB program (R2017b, MathWorks). Briefly, the program utilized the actin and DRAQ5 channels to create masks for the cytoplasm and nucleus regions, respectively. These masks were then used to determine the AR signal within cytoplasm and nucleus, and the nucleus-to-cytoplasm ratio of AR signal was calculated by dividing the AR signal inside the nucleus by the AR signal within the entire cell (nucleus and cytoplasm).

[3] = system: AR protein translocation in A549; experiment: as above; settings: A549, 1 nM R1881, 24 h
Protocol: as §4

[4] = system: AR mRNA in NCI-H2228 lung cancer cells; experiment: AR mRNA level by qRT-PCR; assay type: cell-based
Protocol: (§1) From two independent biological experiments with 3 replicates (n=6), RNA samples were collected with TRIzol reagent (Invitrogen) and isolated using RNeasy Mini Kit (Qiagen). RNA concentrations were measured using A260 nm/A280 nm spectroscopy on the Nanodrop ND-1000 (Thermo-scientific). For each RNA sample, 1000 ng of RNA was reversed transcripted into first-strand cDNA using the High-Capacity RNA-to-cDNA Kit (Applied Biosystems).
(§2) Three independent biological replicates of mRNA samples were collected for each condition, and three technical replicates were run for each sample in qRT-PCR. The fold changes and p-values were calculated with the ΔΔCt method32 and two-sample t-test, respectively. Ubiquitin C (UBC) was used as the housekeeping gene for normalization.

[5] = system: AR mRNA in A549 lung cancer cells; experiment: AR mRNA level by qRT-PCR; assay type: cell-based
Protocol: as §1, §2

[6] = system: AR responsive genes in A549 cells; experiment: AR signaling gene panel qRT-PCR; assay type: cell-based; settings: A549, enzalutamide 5 μM, 24 h
Protocol: as §1
(§3) Changes in expression levels of AR signaling genes were screened using Bio-Rad's PrimePCR pathway 384-well panel: Androgen Receptor Signaling SAB target list (Cat #10047228) and Androgen Receptor Nuclear Signaling (Cat #10025068). […] Two independent biological replicates of mRNA samples were collected for each condition, and one reaction was run for each sample. If necessary, additional technical replicates were run to rule out any outlier. Relative mRNA expressions and p-values were calculated using the ΔΔCt method and two-sample t-test in Bio-Rad CFX Maestro program (version: 4.0.2325.0418). […] The stabilities of housekeeping genes were checked using the geNorm algorithm provided in CFX Maestro. M values of all housekeeping genes used in this study are less than 0.5, which is considered ideal. Log 2-transformed expression levels and −log 10 (p-value) of all treatment groups were plotted as Bubble and Color map graph in the Origin 2020 software.

[7] = system: AR responsive genes in NCI-H2228 cells; experiment: AR signaling gene panel qRT-PCR; assay type: cell-based; settings: NCI-H2228, enzalutamide 5 μM, 24 h (FIG. 2C)
Protocol: as §1, §3

Sequence of mutant AR forms (F877L mutation) (P10275 whole entry F877L): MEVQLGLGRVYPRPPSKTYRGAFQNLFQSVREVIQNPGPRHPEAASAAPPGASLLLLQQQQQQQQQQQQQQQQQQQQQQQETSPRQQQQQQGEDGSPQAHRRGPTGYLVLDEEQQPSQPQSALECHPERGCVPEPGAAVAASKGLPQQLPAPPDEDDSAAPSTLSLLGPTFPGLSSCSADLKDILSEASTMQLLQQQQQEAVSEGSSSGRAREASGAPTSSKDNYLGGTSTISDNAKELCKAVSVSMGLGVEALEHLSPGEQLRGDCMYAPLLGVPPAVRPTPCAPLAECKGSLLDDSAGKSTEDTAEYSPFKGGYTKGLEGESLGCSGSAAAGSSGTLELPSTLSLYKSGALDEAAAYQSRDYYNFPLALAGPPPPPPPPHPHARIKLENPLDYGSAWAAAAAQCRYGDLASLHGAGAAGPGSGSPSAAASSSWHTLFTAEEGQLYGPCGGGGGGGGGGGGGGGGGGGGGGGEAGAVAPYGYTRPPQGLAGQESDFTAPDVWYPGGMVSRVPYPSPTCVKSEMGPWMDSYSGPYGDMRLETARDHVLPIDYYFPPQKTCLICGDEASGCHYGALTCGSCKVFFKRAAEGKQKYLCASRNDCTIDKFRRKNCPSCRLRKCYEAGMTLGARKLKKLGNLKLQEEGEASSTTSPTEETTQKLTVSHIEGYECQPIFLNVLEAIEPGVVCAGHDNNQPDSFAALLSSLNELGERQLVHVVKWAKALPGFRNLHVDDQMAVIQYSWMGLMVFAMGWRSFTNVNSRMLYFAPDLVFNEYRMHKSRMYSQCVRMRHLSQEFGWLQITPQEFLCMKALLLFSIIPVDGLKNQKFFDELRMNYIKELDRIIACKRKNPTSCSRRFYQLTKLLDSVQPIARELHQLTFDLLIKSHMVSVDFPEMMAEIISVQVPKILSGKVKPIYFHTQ
Sequence of AR (P10275 whole entry): as the sequence (P10275 whole entry F877L) above, with L877F counted along it

CC(O)c1cc(C(=O)N[C@@H](C)Cn2ccc(-c3ccc(C#N)c(Cl)c3)n2)[nH]n1 (stereo partly shown) [Darolutamide]
activity against mutant AR forms [1]: Remains antagonistic | greater affinity for AR compared with enzalutamide (AR): 8 fold

C[C@]1(O)CC[C@H]2[C@@H]3CCC4=CC(=O)CCC4=C3C=C[C@@]21C [R1881, Metribolone]
AR transport to the nucleus [2]: efficiently transported to the nucleus | AR transport to the nucleus [3]: efficiently transported to the nucleus | AR expression ([4]; female H2228, androgen (R1881) stimulation): minimal changes | AR mRNA level ([5]; male A549, R1881 1 nM, 2, 4, 8 and 24 h vs control): temporally downregulated

CNC(=O)c1ccc(N2C(=S)N(c3ccc(C#N)c(C(F)(F)F)c3)C(=O)C2(C)C)cc1F [enzalutamide]
FOS expression log 2FC ([6]; p-value=0.008): −1.627 log 2FC | IL6 expression log 2FC ([6]; p-value=0.023): −2.41 log 2FC | MAF expression log 2FC ([6]; p-value=0.035): 2.44 log 2FC | IL6 expression [7]: significantly upregulated | AR expression ([4]; H2228, enzalutamide without ligand stimulation): increased AR expression | AR expression ([5]; A549, enzalutamide without ligand stimulation): increased AR expression | R1881-induced downregulation of AR expression ([5]; male A549, pre-treatment with enzalutamide 30 min before 1 nM R1881): blocked
